Results from patent publication US8992932B2, “Binder-drug conjugates (ADCs) and use thereof” (Seattle Genetics, Inc., priority 2011, dated 2015).
Square brackets hold non-standard residues; d marks the D form. Peptide text beside a SMILES is read from it. * marks the point of attachment. X2 = CC(C)[C@@H](C(=O)*)N(C)CCCCCCN1C(=O)CC(SC[C@H](N)C(=O)O)C1=O; Dolaproine = CO[C@@H]([C@@H]1CCCN1)[C@@H](C)C(=O)O; Dil = CC[C@H](C)[C@H](NC)[C@@H](CC(=O)O)OC

Tested on: Caco-2 cells
Experiment: Cell permeability flux assay using Caco-2 cells
Type: in vitro ADME
Conditions: basal to apical, 2 hours
Protocol: The cell permeability of a substance can be investigated by means of in vitro testing in a flux assay using Caco-2 cells [M. D. Troutman and D R Thakker, Pharm. Res. 20 (8), 1210-1224 (2003)]. For this purpose, the cells were cultured for 15-16 days on 24-well filter plates. For the determination of permeation, the respective working example was applied in a HEPES buffer to the cells either apically (A) or basally (B) and incubated for 2 hours. After 0 hours and after 2 hours, samples were taken from the cis and trans compartments. The samples were separated by HPLC (Agilent 1200, Boblingen, Germany) using reverse phase columns. The HPLC system was coupled via a Turbo Ion Spray Interface to a Triple Quadropol mass spectrometer API 4000 (Applied Biosystems Applera, Darmstadt, Germany). The permeability was evaluated on the basis of a Papp value, which was calculated using the formula published by Schwab et al. [D. Schwab et al., J. Med. Chem. 46, 1716-1725 (2003)].

Structure (SMILES)	Papp (B-A)
CC[C@H](C)[C@@H]([C@@H](CC(=O)N1CCC[C@H]1[C@H](OC)[C@@H](C)C(=O)N[C@@H](Cc1c[nH]c2ccccc12)C(N)=O)OC)N(C)C(=O)[C@@H](NC(=O)[C@H](C(C)C)N(C)CCCC(=O)NNC(=O)CCCCCN1C(=O)CC(SC[C@H](N)C(=O)O)C1=O)C(C)C (stereo partly drawn) [Example 71, N-(4-{2-[6-(3-{[(2R)-2-Amino-2-carboxyethyl]sulphanyl}-2,5-dioxopyrrolidin-1-yl)hexanoyl]hydrazino}-4-oxobutyl)-N-methyl-L-valyl-N-[(3R,4S,5S)-1-{(2S)-2-[(1R,2R)-3-{[(2S)-1-amino-3-(1H-indol-3-yl)-1-oxopropan-2-yl]amino}-1-methoxy-2-methyl-3-oxopropyl]pyrrolidin-1-yl}-3-methoxy-5-methyl-1-oxoheptan-4-yl]-N-methyl-L-valinamide]	2 nm/s
CC[C@H](C)[C@@H]([C@@H](CC(=O)N1CCC[C@H]1[C@H](OC)[C@@H](C)C(=O)N[C@@H](Cc1c[nH]c2ccccc12)C(=O)O)OC)N(C)C(=O)[C@@H](NC(=O)[C@H](C(C)C)N(C)CCCC(=O)NNC(=O)CCCCCN1C(=O)CC(SC[C@H](N)C(=O)O)C1=O)C(C)C (stereo partly drawn) [Example 72, N-(4-{2-[6-(3-{[(2R)-2-Amino-2-carboxyethyl]sulphanyl}-2,5-dioxopyrrolidin-1-yl)hexanoyl]hydrazino}-4-oxobutyl)-N-methyl-L-valyl-N-[(3R,4S,5S)-1-{(2S)-2-[(1R,2R)-3-{[(1S)-1-carboxy-2-(1H-indol-3-yl)ethyl]amino}-1-methoxy-2-methyl-3-oxopropyl]pyrrolidin-1-yl}-3-methoxy-5-methyl-1-oxoheptan-4-yl]-N-methyl-L-valinamide]	1.6 nm/s
CC[C@H](C)[C@@H]([C@@H](CC(=O)N1CCC[C@H]1[C@H](OC)[C@@H](C)C(=O)N[C@@]1(C(=O)N2CCCCO2)C[C@@H]1c1ccccc1)OC)N(C)C(=O)[C@@H](NC(=O)[C@H](C(C)C)N(C)CCCC(=O)NNC(=O)CCCCCN1C(=O)CC(SC[C@H](N)C(=O)O)C1=O)C(C)C (stereo partly drawn) [Example 73, N-(4-{2-[6-(3-{[(2R)-2-Amino-2-carboxyethyl]sulphanyl}-2,5-dioxopyrrolidin-1-yl)hexanoyl]hydrazino}-4-oxobutyl)-N-methyl-L-valyl-N-[(3R,4S,5S)-3-methoxy-1-{(2S)-2-[(1R,2R)-1-methoxy-2-methyl-3-{[(1S,2R)-1-(1,2-oxazinan-2-ylcarbonyl)-2-phenylcyclopropyl]amino}-3-oxopropyl]pyrrolidin-1-yl}-5-methyl-1-oxoheptan-4-yl]-N-methyl-L-valinamide]	2.5 nm/s
CC[C@H](C)[C@@H]([C@@H](CC(=O)N1CCC[C@H]1[C@H](OC)[C@@H](C)C(=O)N[C@@H](Cc1c[nH]c2ccccc12)C(N)=O)OC)N(C)C(=O)[C@@H](NC(=O)[C@H](C(C)C)N(C)CCCCCCN1C(=O)CC(SC[C@H](N)C(=O)O)C1=O)C(C)C (stereo partly drawn) [Example 74, N-[6-(3-{[(2R)-2-Amino-2-carboxyethyl]sulphanyl}-2,5-dioxopyrrolidin-1-yl)hexyl]-N-methyl-L-valyl-N-[(3R,4S,5S)-1-{(2S)-2-[(1R,2R)-3-{[(2S)-1-amino-3-(1H-indol-3-yl)-1-oxopropan-2-yl]amino}-1-methoxy-2-methyl-3-oxopropyl]pyrrolidin-1-yl}-3-methoxy-5-methyl-1-oxoheptan-4-yl]-N-methyl-L-valinamide] (X2-V[Dil][Dolaproine]W-NH2)	5 nm/s
